Experimental findings from patent US20200000099A1 (priority 2017, published 2020) are described below.

The test system of the test is Xylella fastidiosa (Xf). In kind it is cell-based. Particulars: crude ethyl acetate extract of culture supernatant; activity traced to metabolite by NMR and MS.

Regarding `C/C=C/c1cc2c(c(=O)o1)C(=O)[C@@H](O)[C@H](C)O2` [radicinin], the “anti-Xf activity of extract / metabolite” value was “inhibitory activity”.
